We go through 9 sequences from PMC10447463, “Data-mining unveils structure–property–activity correlation of viral infectivity enhancing self-assembling peptides” (Nature Communications, 2023).

The format of data set [1] is physicochemical. The conditions noted are these: for Tht category (> 2 to blank = +): Fig S10 panel D; for ThT Cat. / ThT-Fluorescence (categorical): ThT-active if fluorescence at least twice the control. A digest of the protocol:
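Preformed peptide fibrils (1 mg/mL) mixed with 50 µM ThT in PBS, 15 min at RT, fluorescence ex 440/em 488 nm versus PBS blank, triplicates. Zeta potential: peptides at 1 mg/mL in PBS pH 7.4, aged 1 d at RT, diluted in 1 mM KCl, Smoluchowski from electrophoretic mobility.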

The nature of data set [2]: Conversion rate (CR) assay with fluorescamine. The conditions noted are these: conversion rate, fluorescamine assay; for CR / %: Fig. S7 panel B. The arrangement: key to CR: % = 100−100×filtrate/original fluorescence intensity. In kind it is physicochemical. A digest of the protocol:
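Measurements on freeze-dried PNF powders used a diamond ATR element, 64 scans each, with β-sheet fraction derived as previously reported. CR reflects loss of fluorescamine-reactive monomer after 3 kDa ultrafiltration, averaged over triplicates.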

The format of data set [3] is physicochemical. The arrangement: key to Fibril / Fibril Formation / TEM 2cat / Fibril: 1 = fibrils present; 0 non-fibrillar structures. The conditions noted are these: for Fibril / Fibril Formation: 1 mg/mL, uranyl acetate stain, qualitative.
The mark [4] stands for this setting: TEM, 1 = fibrils present, 0 = non-fibrillar.
Setting [5] is: TEM, 1 = fibrils present, 0 = non-fibrillar structures.
Setting [6] is: category: fibrils present or non-fibrillar.
Setting [7] is: ThT fluorescence category, 1 if Rel. ThT >2.
Where [8] appears, read: Fig S10 panel D, fibril category by TEM.

Where two headings read alike, the source gives them in different places.

In the case of QCKFKQFFNMWQ, the “Tht category (> 2 to blank = +)” value in data set [1] is 1 (ThT. Cat is 1, if Rel. ThT >2). Besides, the “ThT Cat.” value in data set [1] (Fig S10 panel E) is 1 (ThT. Cat is 1, if Rel. ThT >2); in data set [1] (ThT category, 1 if Rel. ThT >2) it was 1 (ThT. Cat is 1, if Rel. ThT >2). The “ThT Cat,” value in data set [1] (ThT category, 1 if Rel. ThT >2) is recorded as 1 (ThT. Cat is 1, if Rel. ThT >2). In data set [1], the “ThT Cat. / ThT-Fluorescence (categorical)” value (shortened to “ThT Cat. / ThT-Fluorescence”) is listed as 1 (ThT. Cat is 1, if Rel. ThT >2). In addition, the CR / % in data set [2] was 98.7%. The sequence further displayed a CR in data set [2] of 98.72. Moreover, the “TEM 2cat” value in data set [3] (Fig S10 panel D) and in data set [3] (setting [6]) was 1 each time. In addition, the Fibril in data set [3] (Fig S10 panel E), in data set [3] (setting [4]) and in data set [3] (setting [5]) was 1 throughout. In addition, in data set [3] (TEM), the “Fibril / Fibril Formation” value was 1.
In the case of QCKIKIQINM, the “Tht category (> 2 to blank = +)” value in data set [1] was 1 (ThT. Cat is 1, if Rel. ThT >2). The “ThT Cat.” value in data set [1] (Fig S10 panel E) is recorded as 1 (ThT. Cat is 1, if Rel. ThT >2); in data set [1] (ThT category, 1 if Rel. ThT >2), 1 (ThT. Cat is 1, if Rel. ThT >2). The “ThT Cat,” value in data set [1] (ThT category, 1 if Rel. ThT >2) is 1 (ThT. Cat is 1, if Rel. ThT >2). Also, in data set [1], the “ThT Cat. / ThT-Fluorescence” value is 1 (ThT. Cat is 1, if Rel. ThT >2). This sequence also came in with a CR / % in data set [2] of 89.7%. In data set [2], this sequence came in with a CR of 89.7. Moreover, the “TEM 2cat” value in data set [3] (Fig S10 panel D) and in data set [3] (setting [6]) was 1 in each case. For the same sequence, the Fibril in data set [3] (Fig S10 panel E), in data set [3] (setting [4]) and in data set [3] (setting [5]) was 1 throughout. Besides, in data set [3] (TEM), the “Fibril / Fibril Formation” value was 1.
On to RGDCKFKFQF, for which the “Tht category (> 2 to blank = +)” value in data set [1] is 1 (ThT. Cat is 1, if Rel. ThT >2). Moreover, the “ThT Cat.” value in data set [1] (Fig S10 panel E) was 1 (ThT. Cat is 1, if Rel. ThT >2); in data set [1] (setting [7]), 1 (ThT. Cat is 1, if Rel. ThT >2). The “ThT Cat,” value in data set [1] (ThT category, 1 if Rel. ThT >2) is 1 (ThT. Cat is 1, if Rel. ThT >2). The “ThT Cat. / ThT-Fluorescence” value in data set [1] is recorded as 1 (ThT. Cat is 1, if Rel. ThT >2). The CR / % in data set [2] is listed as 85.5%. For the same sequence, the CR in data set [2] amounted to 85.47. Also, the “TEM 2cat” value in data set [3] (setting [8]) and in data set [3] (setting [6]) was 1 each time. The Fibril in data set [3] (Fig S10 panel E), in data set [3] (setting [4]) and in data set [3] (setting [5]) was 1 in each case. In data set [3] (TEM), the “Fibril / Fibril Formation” value is reported as 1.
As for RGDKIKIQIC, the “Tht category (> 2 to blank = +)” value in data set [1] is recorded as 1 (ThT. Cat is 1, if Rel. ThT >2). The “ThT Cat.” value is reported as 1 (ThT. Cat is 1, if Rel. ThT >2) in data set [1] (Fig S10 panel E) and 1 (ThT. Cat is 1, if Rel. ThT >2) in data set [1] (setting [7]). The “ThT Cat,” value in data set [1] (ThT category, 1 if Rel. ThT >2) is 1 (ThT. Cat is 1, if Rel. ThT >2). For the same sequence, in data set [1], the “ThT Cat. / ThT-Fluorescence” value is 1 (ThT. Cat is 1, if Rel. ThT >2). Further, the CR / % in data set [2] came to 80%. In data set [2], the CR was 80. Besides, the “TEM 2cat” value in data set [3] (setting [8]) and in data set [3] (setting [6]) was 1 each time. Further, the Fibril in data set [3] (Fig S10 panel E), in data set [3] (setting [4]) and in data set [3] (setting [5]) was 1 throughout. Further, the “Fibril / Fibril Formation” value in data set [3] (TEM) is listed as 1.
On to RGDKIKIQINM, for which the “Tht category (> 2 to blank = +)” value in data set [1] was 1 (ThT. Cat is 1, if Rel. ThT >2). Moreover, the “ThT Cat.” value is given as 1 (ThT. Cat is 1, if Rel. ThT >2) in data set [1] (Fig S10 panel E) and 1 (ThT. Cat is 1, if Rel. ThT >2) in data set [1] (setting [7]). Moreover, the “ThT Cat,” value in data set [1] (ThT category, 1 if Rel. ThT >2) was 1 (ThT. Cat is 1, if Rel. ThT >2). For the same sequence, the “ThT Cat. / ThT-Fluorescence” value in data set [1] is recorded as 1 (ThT. Cat is 1, if Rel. ThT >2). In data set [2], this sequence had a CR / % of 60.9%. The same sequence displayed a CR in data set [2] of 60.92. The “TEM 2cat” value in data set [3] (setting [8]) and in data set [3] (setting [6]) was 1 each time. In addition, the Fibril in data set [3] (Fig S10 panel E), in data set [3] (setting [4]) and in data set [3] (setting [5]) was 1 throughout. For the same sequence, in data set [3] (TEM), the “Fibril / Fibril Formation” value is 1.
For RGDKIKIQINMC, the “ThT Cat,” value in data set [1] (ThT category, 1 if Rel. ThT >2) is 0 (ThT-inactive (N-Fold <2)). For the same sequence, the “ThT Cat.” value in data set [1] (setting [7]) was 0 (ThT-inactive (N-Fold <2)). In addition, the “ThT Cat. / ThT-Fluorescence” value in data set [1] was 0 (ThT-inactive (N-Fold <2)). In data set [2], this sequence showed a CR / % of 60% and a CR of 60. Further, in data set [3] (TEM), the “Fibril / Fibril Formation” value came out at 1. For the same sequence, in data set [3] (setting [4]), the Fibril is 1. In data set [3] (setting [5]), this sequence showed a Fibril of 1. Moreover, the “TEM 2cat” value in data set [3] (setting [6]) came to 1.
As for RGDKIKIQINMWQ, the “Tht category (> 2 to blank = +)” value in data set [1] is 0 (ThT-inactive (N-Fold <2)). Further, the “ThT Cat.” value in data set [1] (Fig S10 panel E) and in data set [1] (setting [7]) was 0 (ThT-inactive (N-Fold <2)) in each case. Moreover, in data set [1] (ThT category, 1 if Rel. ThT >2), the “ThT Cat,” value was 0 (ThT-inactive (N-Fold <2)). The “ThT Cat. / ThT-Fluorescence” value in data set [1] was 0 (ThT-inactive (N-Fold <2)). The CR / % in data set [2] is 66%. In addition, the CR in data set [2] was determined as 66. Also, the “TEM 2cat” value in data set [3] (setting [8]) and in data set [3] (setting [6]) was 1 each time. Moreover, the Fibril in data set [3] (Fig S10 panel E), in data set [3] (setting [4]) and in data set [3] (setting [5]) was 1 in each case. Besides, the “Fibril / Fibril Formation” value in data set [3] (TEM) is recorded as 1.
For RGDSGGGGGGKIKIQIC, the “Tht category (> 2 to blank = +)” value in data set [1] is on record as 1 (ThT. Cat is 1, if Rel. ThT >2). Moreover, the “ThT Cat.” value is 1 (ThT. Cat is 1, if Rel. ThT >2) in data set [1] (Fig S10 panel E) and 1 (ThT. Cat is 1, if Rel. ThT >2) in data set [1] (setting [7]). In addition, in data set [1] (ThT category, 1 if Rel. ThT >2), the “ThT Cat,” value is on record as 1 (ThT. Cat is 1, if Rel. ThT >2). Also, the “ThT Cat. / ThT-Fluorescence” value in data set [1] is 1 (ThT. Cat is 1, if Rel. ThT >2). The CR / % in data set [2] was 54.7%. In addition, the CR in data set [2] came to 54.68. The “TEM 2cat” value in data set [3] (setting [8]) and in data set [3] (setting [6]) was 1 each time. In addition, the Fibril in data set [3] (Fig S10 panel E), in data set [3] (setting [4]) and in data set [3] (setting [5]) was 1 each time. Besides, the “Fibril / Fibril Formation” value in data set [3] (TEM) came out at 1.
As for RGDSKIKIQIC, in data set [1], the “Tht category (> 2 to blank = +)” value was 1 (ThT. Cat is 1, if Rel. ThT >2). In addition, the “ThT Cat.” value in data set [1] (Fig S10 panel E) is recorded as 1 (ThT. Cat is 1, if Rel. ThT >2); in data set [1] (setting [7]), 1 (ThT. Cat is 1, if Rel. ThT >2). Further, the “ThT Cat,” value in data set [1] (ThT category, 1 if Rel. ThT >2) is 1 (ThT. Cat is 1, if Rel. ThT >2). Besides, the “ThT Cat. / ThT-Fluorescence” value in data set [1] is on record as 1 (ThT. Cat is 1, if Rel. ThT >2). In addition, the CR / % in data set [2] was found to be 43.4%. The same sequence displayed a CR in data set [2] of 43.38. Moreover, the “TEM 2cat” value in data set [3] (setting [8]) and in data set [3] (setting [6]) was 1 throughout. Further, the Fibril in data set [3] (Fig S10 panel E), in data set [3] (setting [4]) and in data set [3] (setting [5]) was 1 throughout. The “Fibril / Fibril Formation” value in data set [3] (TEM) was 1.
